Data published in patent US3997557A, “Substituted N-aminoalkylpyrroles” (American Hoechst Corporation, priority 1974, dated 1976).
Structures can show the parent of a compound that is named as a salt.

Columns and labels:
[1] = test system: spontaneous hypertensive rat; assay: Lowering of blood pressure in the spontaneous hypertensive rat, indirect tail cuff method; format: in vivo; conditions: 100 mg/kg of body weight
Description: The compounds of this invention are also useful as antihypertensive agents because of their ability to lower blood pressure in mammals. […] 135. For example, at a dose of 100 mg/kg of body weight, the compounds shown in Table III below effect the corresponding decrease in systolic blood pressure.

[2] = test system: central nervous system; assay: Mouse observation procedure of S. Irwin, central nervous system depressant effects (tranquilizer); format: in vivo; conditions: male COBS mice, behavior and reflex depression, muscle relaxation, read-out: minimum effective dose (MED)/Kilogram of body weight
Description: The compounds of the invention are useful as tranquilizers because of their depressant effects on the central nervous system. The depressant effects on the central nervous system were evaluated according to the mouse observation procedure of S. Irwin, Psychopharmacologia, 13, 222 (1968). Male COBS mice are dosed with the drug, and its effects on behavior and reflex depression together with muscle relaxation determined by the degree of deviation from control scores, with activity expressed in terms of minimum effective dose (MED). The effectiveness of compounds of the invention as tranquilizers is illustrated in Table I below.

[3] = test system: isolated rabbit atrium; assay: Isolated rabbit atrium, increase in functional refractory period (antiarrhythmic); conditions: Oryctolagus cuniculus; for activation at 10 µM: 10^-5 molar; for activation at 20 µM: 2 × 10^-5 molar; for activation at 1 µM: 10^-6 molar
Description: The compounds of the invention are useful as antiarrhythmic agents because of their ability to alleviate cardiac arrhythmias. […] 198] wherein the compounds effect an increase in the functional refractory period. Compounds are dissolved in Krebs-Henseleit solution, and the percent change in the functional refractory period is monitored with an oscilloscope. […] Similarly at a concentration of 10^-^6 molar 1-(3-dimethylaminopropyl)-2-(p-bromophenyl)-4,5,6,7-tetrahydroindole hydrochloride and 1-(2-methylaminoethyl)-2-phenyl-1,4,5,6,7,8-hexahydrocyclohepta[b]pyrrole hydrochloride each effect a 150% increase in the functional refractory period.

[4] = test system: carrageenin-induced rat paw edema; assay: Carrageenin-induced rat paw edema antiinflammatory assay; format: in vivo; conditions: 200 mg/kg of body weight
Excerpt: The compounds of this invention are useful as antiinflammatory agents because of their ability to suppress inflammation in mammals. […] Exp. Biol. Med. III, 544 (1962)].

| SMILES | minimal effective dose [2] [mg/kg] | inhibition in vivo at 200 mg/kg [4] [%] | also measured |
| --- | --- | --- | --- |
| CNCCCn1c(-c2ccccc2)cc2c1CCCCC2 [Example 39, 1-(3-methylaminopropyl)-2-phenyl-1,4,5,6,7,8-hexahydrocyclohepta[b]pyrrole . HCl] | 50 | – | decrease in systolic blood pressure [1]: 42 mm Hg; activation at 10 µM [3]: 214% |
| CN(C)CCCn1c(-c2ccccc2)cc2c1CCCCCC2.Cl [Example 56, 1-(3-dimethylaminopropyl)-2-phenyl-4,5,6,7,8,9-hexahydrocycloocta[b]pyrrole hydrochloride] | – | – | decrease in systolic blood pressure [1]: 50 mm Hg |
| CCN(CC)CCCn1c(-c2ccccc2)cc2c1CCc1ccccc1-2 [1-(3-diethylaminopropyl)-2-phenyl-4,5-dihydrobenz[e]-indole] | 20 | – | – |
| CN(C)CCn1c(-c2ccccc2)cc2c1CCCC2 [Example 1, 1-(2-dimethylaminoethyl)-2-phenyl-4,5,6,7-tetrahydroindole hydrochloride] | – | 47 | activation at 20 µM [3]: 25% |
| COc1cc(-c2cc3c(n2CCCN(C)C)CCCCC3)cc(OC)c1OC.Cl [Example 54, 1-(3-dimethylaminopropyl)-2-(3,4,5-trimethoxyphenyl)-1,4,5,6,7,8-hexahydrocyclohepta[b]pyrrole hydrochloride] | 50 | – | – |
| CNCCCn1c(-c2ccc(OC)cc2)cc2c1CCCCC2.O=C(O)C(=O)O [Example 49, 1-(3-methylaminopropyl)-2-(p-methoxyphenyl)-1,4,5,6,7,8-hexahydrocyclohepta[b]-pyrrole oxalate] | 10 | – | – |
| CNCCn1c(-c2cccc(C(F)(F)F)c2)cc2c1CCCC2 [1-(2-methylaminoethyl)-2-(m-trifluoromethylphenyl)-4,5,6,7-tetrahydroindole] | – | 58 | – |
| CN(C)CCCn1c(-c2ccc([N+](=O)[O-])cc2)cc2c1CCCCCC2 [Example 58, 1-(3-dimethylaminopropyl)-2-(p-nitrophenyl)-4,5,6,7,8,9-hexahydrocycloocta[b]-pyrrole hydrochloride] | – | – | activation at 10 µM [3]: 125% |
| CNCCCn1c(-c2ccccc2)cc2c1CCC2.O=C(O)C(=O)O [Example 34, 1-(3-methylaminopropyl)-2-phenyl-1,4,5,6-tetrahydrocyclopenta[b]pyrrole oxalate] | 25 | – | – |
| CN(C)CCCn1c(-c2ccc(N)cc2)cc2c1CCCCCC2.O.O=C(O)C(=O)O.O=C(O)C(=O)O [Example 59, 1-(3-dimethylaminopropyl)-2-(p-aminophenyl)-4,5,6,7,8,9-hexahydrocycloocta[b]pyrrole dioxalate monohydrate] | 25 | – | – |
| CN(C)CCCn1c(-c2ccccc2)cc2c1CCC2.Cl [Example 35, 1-(3-dimethylaminopropyl)-2-phenyl-1,4,5,6-tetrahydrocyclopenta[b]pyrrole hydrochloride] | 50 | – | activation at 20 µM [3]: 233% |
| CC(C)NC(C)Cn1c(-c2ccc(Cl)cc2)cc2c1CCCC2.Cl (stereo not shown) [Example 21, 1-(2-isopropylaminopropyl)-2-(p-chlorophenyl)-4,5,6,7-tetrahydroindole hydrochloride] | 50 | – | – |
| CCN(CC)CCn1c(-c2ccccc2)cc2c1CCC(C)C2 (stereo not shown) [Example 24, 1-(2-diethylaminoethyl)-2-phenyl-5-methyl-4,5,6,7-tetrahydroindole hydrochloride] | – | – | activation at 10 µM [3]: 208% |
| COc1ccc(-c2cc3c(n2CCCN(C)C)CCCC3)cc1.Cl [Example 11, 1-(3-dimethylaminopropyl)-2-(p-methoxyphenyl)-4,5,6,7-tetrahydroindole hydrochloride] | 50 | 44 | activation at 10 µM [3]: 300% |
| CC(C)NCCCn1c(-c2ccccc2)cc2c1CCCCC2 [Example 43, 1-(3-isopropylaminopropyl)-2-phenyl-1,4,5,6,7,8-hexahydrocyclohepta[b]pyrrole . oxalate] | 37 | – | – |
| CCN(CC)CCn1c(-c2ccccc2)cc2c1CCC(C(C)(C)C)C2.Cl (stereo not shown) [Example 25, 1-(2-diethylaminoethyl)-2-phenyl-5-(t-butyl)-4,5,6,7-tetrahydroindole hydrochloride] | 20 | – | decrease in systolic blood pressure [1]: 30 mm Hg |
| CCN(CC)CCCn1c(-c2ccccc2)cc2c1CCc1ccccc1-2 [Example 32, hydrochloride] | – | 72 | decrease in systolic blood pressure [1]: 40 mm Hg |
| CN(C)CCCn1c(-c2ccc(Cl)cc2)cc2c1CCCC2 [1-(3-dimethylaminopropyl)-2-(p-chlorophenyl)-4,5,6,7-tetrahydroindole] | – | 44 | – |

| SMILES | minimal effective dose [2] [mg/kg] | inhibition in vivo at 200 mg/kg [4] [%] | also measured |
| --- | --- | --- | --- |
| CN(C)CCCn1c(-c2cccc(C(F)(F)F)c2)cc2c1CCCC2 [1-(3-dimethylaminopropyl)-2-(m-trifluoromethylphenyl)-4,5,6,7-tetrahydroindole] | 40 | – | – |
| CCNCCn1c(-c2ccccc2)cc2c1CCCC2 [Example 3, 1-(2-ethylaminoethyl)-2-phenyl-4,5,6,7-tetrahydroindole . oxalate] | 25 | – | – |
| CN(C)CCCn1c(-c2ccc(F)cc2)cc2c1CCCCC2.Cl [Example 55, 1-(3-dimethylaminopropyl)-2-(p-fluorophenyl)-1,4,5,6,7,8-hexahydrocyclohepta[b]pyrrole hydrochloride] | 50 | – | – |
| CC(CN(C)C)n1c(-c2ccccc2)cc2c1CCCCC2 (stereo not shown) [Example 38, 1-(1-methyl-2-dimethylaminoethyl)-2-phenyl-1,4,5,6,7,8-hexahydrocyclohepta[b]pyrrole . oxalate] | 6 | 58 | – |
| CN(C)CCn1c(-c2ccccc2)cc2c1CCCCC2 [Example 37, 1-(2-dimethylaminoethyl)-2-phenyl-1,4,5,6,7,8-hexahydrocyclohepta[b]pyrrole . HCl] | – | – | decrease in systolic blood pressure [1]: 45 mm Hg |
| CN(C)CCCn1c(-c2ccc(F)cc2)cc2c1CCCCCC2 [Example 60, 1-(3-dimethylaminopropyl)-2-(p-fluorophenyl)-4,5,6,7,8,9-hexahydrocycloocta[b]pyrrole oxalate] | – | – | activation at 10 µM [3]: 139% |
| CC(C)N(CCn1c(-c2ccc(O)cc2)cc2c1CCCC2)C(C)C [Example 23, 1-(2-diisopropylaminoethyl)-2-(p-hydroxyphenyl)-4,5,6,7-tetrahydroindole] | – | 44 | – |
| CN(C)CCCn1c(-c2ccccc2)cc2c1-c1ccccc1CC2.Cl [Example 30, 1-(3-dimethylaminopropyl)-2-phenyl-4,5-dihydrobenz[g]indole hydrochloride] | – | – | decrease in systolic blood pressure [1]: 24 mm Hg |
| CN(C)CCCn1c(-c2ccccc2)cc2c1CCc1ccccc1-2 [Example 31, hydrochloride] | 20 | 56 | decrease in systolic blood pressure [1]: 30 mm Hg |
| CNCCn1c(-c2ccccc2)cc2c1CCCCC2.Cl [Example 36, 1-(2-methylaminoethyl)-2-phenyl-1,4,5,6,7,8-hexahydrocyclohepta[b]pyrrole hydrochloride] | 50 | – | activation at 1 µM [3]: 150% |
| CN(C)CCCn1c2c(c(-c3ccccc3)c1-c1ccccc1)CCCC2.O.O=C(O)C(=O)O [Example 28, 1-(3-dimethylaminopropyl)-2,3-diphenyl-4,5,6,7-tetrahydroindole oxalate monohydrate] | 25 | – | – |
| CCNCCn1c(-c2ccccc2)cc2c1CCCCCC2.O=C(O)C(=O)O [Example 57, 1-(2-ethylaminoethyl)-2-phenyl-4,5,6,7,8,9-hexahydrocycloocta[b]pyrrole oxalate] | 25 | – | – |
| CNCCn1c(-c2cccc(C(F)(F)F)c2)cc2c1CCCC2 [Example 14] | 25 | – | activation at 20 µM [3]: 200% |
| c1ccc(-c2cc3c(n2CCN2CCNCC2)CCCC3)cc1 [Example 5, 1-[2-(1-piperazinylethyl)]-2-phenyl-4,5,6,7-tetrahydroindole . dioxalate] | 10 | – | – |
| CC(CN(C)C)n1c(-c2cccc(C(F)(F)F)c2)cc2c1CCCC2 (stereo not shown) [1-(1-methyl-2-dimethylaminoethyl)-2(m-trifluoromethylphenyl)-4,5,6,7-tetrahydroindole . HCl] | – | 46 | – |
| CN(C)CCCn1c(-c2ccc(N)cc2)cc2c1CCCCCC2 [1-(3-dimethylaminopropyl)-2-(p-aminophenyl)-4,5,6,7,8,9-hexahydrocycloocta[b]pyrrole] | – | 57 | – |
| CN(C)CCCn1c(-c2ccc(Br)cc2)cc2c1CCCC2 [Example 12, 2-(p-bromophenyl)-1-(3-dimethylaminopropyl)-4,5,6,7-tetrahydroindole hydrochloride] | – | – | activation at 1 µM [3]: 150% |
| CN(C)CCCn1c(-c2ccccc2)cc2c1CCCC2 [Example 6, 1-(3-dimethylaminopropyl)-2-phenyl-4,5,6,7-tetrahydroindole . HCl] | – | 45 | – |
